Patent US6420330B1, “Use of quaternary carboxylic acid alkanolamine ester salts as microbicide agents” (Cognis Deutschland GmbH, priority 1997, dated 2002)

Legend:
[1] = tested on: Staphylococcus aureus ATCC 6538; test: DGHM suspension test, microbicidal activity; format: cell-based
Method: (§1) The microbicidal activity of the quanterary carboxylic acid alkanolamine ester salts used in accordance with the invention was tested against the following selected test germs:
(§2) The effectiveness of the compound to be tested was determined by the suspension test in accordance with the guidelines of the Deutsche Gesellschaft for Hygiene and Mikrobiologie (DGHM). Test solutions containing quatemary carboxylic acid alkanolamine ester salts in the quantities shown in the Tables of 50, 100, 200, 400 and 800 mg/l were prepared using water with a hardness of 17° dH and optionally isopropanol.
(§3) At room temperatures, quantities of 0.1 ml test germ suspension were pipetted into test tubes containing 10 ml of the test solutions described above and mixed. After various contact times of 5, 15, 30 and 60 minutes, 1 ml of material was taken from the test tubes by pipette and transferred to 9 ml inactivator solution (inactivators: 3.0% Tween, 0.3% lecithin, 0.1% histidine). After in activation for at least 5 and at most 30 minutes, the living germ count was determined by plating out onto casein peptone-soybean flour peptone (CaSo)-agar plates. Using a spiral plater, the inactivating mixture was directly plated out onto CaSo-agar. The samples were incubated for 24 to 72 hours at 37° C. and macroscopically evaluated for growth. The destruction time or the residual germ count was determined in this way. The germ count of an unchallenged water control is related to the germ count of the inactivated test solution taking the dilution into account. The higher the value, the better the microbicidal effect. The symbol < means that the logarithmic reductuon factor is below the indicated value or, in the case of the symbol >, above the indicated value. The abbreviation CU stands for “concentration used”.

[2] = tested on: Pseudomonas aeruginosa ATCC 15442; test: DGHM suspension test, microbicidal activity; format: cell-based
Method: as §1, §2, §3

[3] = CU 50 mg/l, contact time 5 mins.
[4] = CU 50 mg/l, contact time 15 mins.
[5] = CU 50 mg/l, contact time 30 mins.
[6] = CU 50 mg/l, contact time 60 mins.
[7] = CU 100 mg/l, contact time 5 mins.
[8] = CU 100 mg/l, contact time 15 mins.
[9] = CU 100 mg/l, contact time 30 mins.
[10] = CU 100 mg/l, contact time 60 mins.
[11] = CU 200 mg/l, contact time 5 mins.
[12] = CU 200 mg/l, contact time 15 mins.
[13] = CU 200 mg/l, contact time 30 mins.
[14] = CU 200 mg/l, contact time 60 mins.

SMILES | logarithmic reduction factor [1, 3] | logarithmic reduction factor [1, 4] | logarithmic reduction factor [1, 5] | logarithmic reduction factor [1, 6] | logarithmic reduction factor [1, 7] | logarithmic reduction factor [1, 8] | logarithmic reduction factor [1, 9] | logarithmic reduction factor [1, 10] | logarithmic reduction factor [1, 11] | logarithmic reduction factor [1, 12] | logarithmic reduction factor [1, 13] | logarithmic reduction factor [1, 14] | logarithmic reduction factor [2, 7] | logarithmic reduction factor [2, 8] | logarithmic reduction factor [2, 9] | logarithmic reduction factor [2, 10] | logarithmic reduction factor [2, 11] | logarithmic reduction factor [2, 12] | logarithmic reduction factor [2, 13] | logarithmic reduction factor [2, 14] | also measured
CCCCCCCCCCCC(=O)OCC[N+](C)(C)CCOC(=O)CCCCCCCCCCC.COS(=O)(=O)[O-] [Example 8, dimethyl diethanolammonium dilauric acid ester methosulfate] | <1.39 | 3.24 | 4.28 | 4.23 | 1.98 | 3.40 | 5.29 | >5.60 | 2.34 | 4.64 | >5.51 | >5.60 | <1.88 | <1.93 | <1.80 | 3.05 | <1.88 | <1.93 | 3.05 | 3.77 | logarithmic reduction factor [2, 3]: <1.88; logarithmic reduction factor [2, 4]: <1.93; logarithmic reduction factor [2, 5]: <1.80; logarithmic reduction factor [2, 6]: <1.90
CCCCCCCCCC(=O)OCC[N+](C)(CCOC(=O)CCCCCCCCC)CCOC(=O)CCCCCCCCC.COS(=O)(=O)[O-] [Example 9, methyl triethanolammonium tricapric acid ester methosulfate] | <1.39 | <1.59 | <1.51 | <1.60 | <1.39 | <1.59 | <1.51 | 2.09 | <1.39 | <1.59 | 1.83 | 2.97 | <1.88 | <1.93 | <1.80 | <1.90 | <1.88 | <1.93 | <1.80 | 2.94 | logarithmic reduction factor ([2]; CU 400 mg/l, contact time 5 mins.): <1.88; logarithmic reduction factor ([2]; CU 400 mg/l, contact time 15 mins.): <1.93; logarithmic reduction factor ([2]; CU 400 mg/l, contact time 30 mins.): 3.27; logarithmic reduction factor ([2]; CU 400 mg/l, contact time 60 mins.): 3.72
